Reference: US4743584A, “C-terminal amide cyclic renin inhibitors containing peptide isosteres” (Merck & Co., Inc., priority 1986, dated 1988)
Positions of bridges follow the written chain, without caps; N, C: chain ends. Residues, ends and D or L forms follow the SMILES beside them. *: point of attachment. Boc = CC(C)(C)OC(=O)*

Tests used:
human kidney renin = target: T1, human kidney renin (Homo sapiens, UniProt P00797); test: Human renin inhibition; format: biochemical; settings: purified human kidney renin; read-out: KI (dissociation constant of the inhibited enzyme-inhibitor complex)
T1 construct: human kidney renin purified as described in Bangham; from tissue; host or cells: human kidney
T1 sequence (P00797 67-406): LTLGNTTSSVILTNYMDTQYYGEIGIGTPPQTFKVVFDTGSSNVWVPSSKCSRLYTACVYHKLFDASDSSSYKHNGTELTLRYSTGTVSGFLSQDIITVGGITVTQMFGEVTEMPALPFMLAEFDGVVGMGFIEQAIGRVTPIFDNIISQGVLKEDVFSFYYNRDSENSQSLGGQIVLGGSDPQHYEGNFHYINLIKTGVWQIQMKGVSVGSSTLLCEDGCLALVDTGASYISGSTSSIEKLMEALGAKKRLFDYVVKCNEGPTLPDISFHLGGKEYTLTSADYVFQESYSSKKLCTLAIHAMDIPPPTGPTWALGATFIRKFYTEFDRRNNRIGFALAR
Description: An assay was carried out in order to determine the inhibitory potency of the peptides of the present invention. The assay measured the inhibition of human kidney renin purified as described in Bangham, D. R., Robertson, I., Robinson, J. I. S., Robinson, C. J., and Tree, M., Clinical Science and Molecular Medicine, 48 (Supp. 2): 136s-159s (1975), and further purified by affinity chromatography on pepstatin-aminohexyl-Sepharase as described in Poe, M., Wu., J. K., Florance, J. R., Radkey, J. A., Bennett, C. D., and Hoagsteen, K., J. Biol. Chem. (1982, in press). The assay was also in accordance with Poe et al. cited above. Results are expressed as KI values, which refer to the dissociation constant of the inhibited enzyme-inhibitor complex. This KI value was obtained as described above. […]

hog kidney renin = test: Hog renin inhibition; format: biochemical; settings: pH 7.3, read-out: I50 (concentration of peptide inhibitor necessary to produce 50% inhibition of renin activity)
Description: An assay was carried out in order to determine the inhibitory potency of the peptides of the present invention. The assay measured the inhibition of hog kidney renin, and was in accordance with the procedure described in Rich et al., J. Med. Chem. 23:27, 1980, except that a pH of 7.3 was used. The results of the assay, illustrated in the table below, are expressed as I50 values, which refers to the concentration of peptide inhibitor necessary to produce 50% inhibition of renin activity. This I50 value is obtained typically by plotting data from four inhibitor concentrations.

nephrectomized rats = settings: after the injection of hog renin into nephrectomized rats; Gross et al. 1971; cited from earlier work

Compound | Ki (human kidney renin) [µM] | also measured
CC(C)[C@@H]1NC(=O)[C@H](Cc2ccccc2)NC(=O)[C@H](Cc2ccccc2)NC(=O)[C@@H](NC(=O)[C@H](Cc2ccccc2)NC(=O)[C@@H]2CCCN2C(=O)[C@H](Cc2c[nH]cn2)NC(=O)[C@@H]2CCCN2)CCCCNC(=O)[C@H](Cc2ccccc2)NC1=O (H-PHPFKFFVF; lactam 5-C) | 33 | –
CC(C)C[C@@H]1NC(=O)[C@@H](NC(=O)[C@H](Cc2ccccc2)NC(=O)[C@@H]2CCCN2C(=O)[C@H](Cc2c[nH]cn2)NC(=O)[C@@H]2CCCN2C(=O)OC(C)(C)C)CCCCNC(=O)[C@H](Cc2ccccc2)NC(=O)[C@H](C(C)C)NC(=O)[C@H](CC(C)C)NC1=O [drawing 67] (Boc-PHPFKLLVF; lactam 5-C) | – | IC50 (hog kidney renin): 1000 µM
CC(C)C[C@@H]1NC(=O)[C@@H](NC(=O)[C@H](Cc2ccccc2)NC(=O)[C@@H]2CCCN2C(=O)[C@H](Cc2c[nH]cn2)NC(=O)[C@@H]2CCCN2C(=O)OC(C)(C)C)CCCCNC(=O)[C@H](Cc2ccccc2)NC(=O)[C@H](C(C)C)NC(=O)[C@H](CC(C)C)NC1=O [drawing 69] (Boc-PHPFKLLVF; lactam 5-C) | 6.4 | –
Pepstatin | – | blood pressure in vivo (nephrectomized rats): reduce blood pressure
